{"source": "patent US7691874B2", "about": "“Neuroprotective properties of dextrorotatory morphinans” (priority 2004, dated 2010)", "key": {"[1]": {"test_system": "MA-treated mice", "assay": "MA-induced conditioned place preference with CB1 modulation", "protocol": "(§1) The control mice received an i.p. injection of saline just before entering the white or black compartment. Cocaine or MA dissolved in saline was administered immediately before the mice were placed in the white compartment. To test the effect of cocaine alone or MA alone or in combination with exemplified morphinans (DM, HM, AM, CM or DF), each morphinan was administered 2 hr before cocaine or saline injection.\n(§2) On day 1, the mice were pre-exposed to the test apparatus for 5 min. The guillotine doors were raised and the mice were allowed to move freely between the two compartments. On day 2, the time each mouse spent in each compartment was recorded for 15 min. On days 3, 5, 7, 9, 11, and 13, the mice were injected with cocaine before being confined to the white compartment, the non-preferred side, for 20 min. On days 4, 6, 8, 10, and 12, the mice were injected with saline before being confined to the black compartment, the preferred side, for 20 min. On day 14, the guillotine doors were raised. The mice were initially placed in the tunnel and the time spent by the mice in the two compartments was recorded for 15 min. The scores were calculated from the differences in the time spent in the white compartment in the testing and pre-testing phases."}, "[2]": {"test_system": "LPS-treated mice", "assay": "LPS-induced loss of nigral TH-IR with CB1 agonist/antagonist and HM", "type": "in vivo", "protocol": "Mortality was observed by 2 weeks after bilateral LPS intrastriatal injection (one side: 2 μg×2)."}, "[3]": {"test_system": "MPTP-treated mice", "assay": "MPTP-induced loss of nigral TH-IR with CB1 agonist/antagonist and HM", "type": "in vivo", "conditions": "combined with HM 20 mg/kg i.p."}, "[4]": {"test_system": "cocaine-treated mice", "assay": "Cocaine-induced behavioural sensitization with CB1 modulation"}, "[5]": {"test_system": "MA-treated mice", "assay": "MA-induced loss of nigral TH-IR with CB1 agonist/antagonist and HM"}, "[6]": {"test_system": "LPS-treated mice", "assay": "LPS-induced mortality with CB1 agonist/antagonist and HM", "type": "in vivo"}, "[7]": {"test_system": "cocaine-treated mice", "assay": "Cocaine-induced conditioned place preference with CB1 modulation", "protocol": "as §1, §2"}, "[8]": {"test_system": "MA-treated mice", "assay": "MA-induced behavioural sensitization", "protocol": "Morphinans (20 mg/kg, i.p.) were administered last 3 days of wash-out period."}, "[9]": {"test_system": "MA-treated mice", "assay": "MA model, HM versus L-dopa/carbidopa: locomotor activity", "type": "in vivo", "conditions": "3 days after MA"}, "[10]": {"test_system": "MA-treated mice", "assay": "MA model, HM versus L-dopa/carbidopa: hyperthermia", "type": "in vivo", "conditions": "MA 7.5 mg/kg i.p. x 4", "protocol": "FIGS. 31A-31B show effect of drugs on the MA-induced hyperthermia. Mice received MA injections as 2 hrs' time interval under the ambient temperature of 22.0±0.5° C.\nExperimental paradigm for MA with or without compounds is in FIG. 30. Treatment with MA (7.5 mg/kg, i.p.×four times as two hour time interval) produces hyperthermia (P<0.01)."}, "[11]": {"test_system": "LPS-treated mice", "assay": "LPS model, HM versus L-dopa/carbidopa: mortality", "type": "in vivo", "conditions": "intrastriatal LPS 2 μg x 4/head; 2 weeks", "protocol": "Mortality was observed by 2 weeks after LPS injection. *P<0.01 vs. Saline+LPS (x^2-test).\nThe neuroprotective effect of HM was compared with L-dopa, carbidopa, or carbidopa plus L-dopa in response to dopaminergic damage induced by LPS. Intrastriatal injection of LPS (2 μg×4/head) produced high mortality (ten animals died out of twelve animals in the 2 weeks after LPS administration)."}, "[12]": {"test_system": "MPTP-treated mice", "assay": "MPTP model, HM versus L-dopa/carbidopa: locomotor activity", "type": "in vivo", "conditions": "HM 24 mg/kg i.p., L-dopa 200 mg/kg p.o., carbidopa 20 mg/kg p.o., 2 weeks before MPTP", "protocol": "FIGS. 20A-20B show effects of carbidopa, L-dopa, carbidopa+L-dopa and HM on the changes in locomotor activity (A) and locomotor pattern (B) induced by MPTP in mice.\nA prescription drug for treating Parkinsonian patients is L-dopa or carbidopa plus L-dopa. Thus, the neuroprotective effects of HM was compared with L-dopa, carbidopa, or carbidopa plus L-dopa. […] Locomotor activity was examined for 60 min after final treatment of MPTP. Mice were sacrificed at 24 h after final MPTP administration. HM (24 mg/kg, i.p.), L-dopa (200 mg/kg, p.o.) with or without carbidopa (20 mg/kg, p.o.) was administered for 2 weeks before first MPTP challenge."}, "[13]": {"test_system": "LPS-treated mice", "assay": "LPS model, HM versus L-dopa/carbidopa: microglia F4/80-like immunoreactivity", "type": "in vivo", "conditions": "substantia nigra"}, "[14]": {"test_system": "LPS-treated mice", "assay": "LPS model, HM versus L-dopa/carbidopa: nigral TH-IR", "conditions": "mouse, in vivo", "description": "FIG. 27 show effects of carbidopa, L-dopa, carbidopa+L-dopa and HM on the nigral tyrosine hydroxylase-like immunoreactivity (TH-IR) of the mice treated with LPS."}, "[15]": {"test_system": "LPS-treated mice", "assay": "LPS model, HM versus L-dopa/carbidopa: locomotor activity", "type": "in vivo", "conditions": "3 weeks after LPS", "protocol": "Locomotor activity was examined for 60 min at 3 weeks after LPS treatment. LPS-induced significant reduction (P<0.01 vs. saline treatment) in locomotor activity was attenuated by L-dopa (P<0.05), carbidopa+L-dopa (P<0.05) or HM (P<0.01) (FIGS. 24 and 25)."}}}
{"smiles": "CCCCC/C=C\\C/C=C\\C/C=C\\C/C=C\\CCCC(=O)NCCCl", "note": "[ACEA, arachidonyl-2-chloroethylamide]", "values": [{"measurement": "CPP response of the compound itself", "setting": "[1]; AM 251 0.3, HM 20, ACEA 2 mg/kg i.p., no MA", "result": "showed CPP effects"}, {"measurement": "effect on HM's effect in response to MA-induced CPP", "setting": "[1]; combined with HM", "result": "significantly counteracted"}, {"measurement": "effect on MA-induced CPP", "setting": "[1]; mouse, in vivo", "result": "did not alter CPP effects by MA"}, {"measurement": "effect on LPS-induced loss in TH-IR when combined with HM / on HM's effect", "setting": "[2]; combined with HM", "result": "counteracted HM's protective effect"}, {"measurement": "effect on LPS-induced reduction in nigral TH-IR", "setting": "[2]; given alone", "result": "did not alter LPS-induced reduction in TH-IR"}, {"measurement": "effect on MPTP-induced loss in TH-IR when combined with HM / on HM's action", "setting": "[3]", "result": "counteracted HM's neuroprotective action"}, {"measurement": "behavioural effects of the compound itself", "setting": "[4]; AM 251 0.3, ACEA 2, HM 20 mg/kg, no cocaine", "result": "Neither saline-, AM 251 (0.3 mg/kg)-, ACEA (2 mg/kg)-treated nor HM (20 mg/kg)-treated animals showed any specific behavioural effects"}, {"measurement": "effect on cocaine-induced behavioural sensitization", "setting": "[4]; cocaine 10 mg/kg/day i.p. x 7, challenge one month later", "result": "Neither ACEA nor AM 251 alter behavioural sensitization by cocaine"}, {"measurement": "effect on HM's effect in response to cocaine-induced sensitization", "setting": "[4]; combined with HM", "result": "Neither ACEA nor AM 251 significantly alter HM's effect"}, {"measurement": "effect on MA-induced reduction in TH-IR when combined with HM / on HM's effect", "setting": "[5]; combined with HM 20 mg/kg", "result": "reversed HM's protective effect"}, {"measurement": "effect on MA-induced reduction in nigral TH-IR", "setting": "[5]; given alone", "result": "did not alter MA-induced reduction in TH-IR"}, {"measurement": "effect on HM-induced protective (anti-mortal) effect", "setting": "[6]; combined with HM 20 mg/kg", "result": "reversed HM-induced protective (anti-mortal) effect"}, {"measurement": "effect on LPS-induced mortality", "setting": "[6]; given alone: HM 20, ACEA 2, AM-251 0.3 mg/kg, 2 weeks after bilateral intrastriatal LPS", "result": "Neither AM-251 nor ACEA significantly changed LPS-induced mortality"}, {"measurement": "CPP response of the compound itself", "setting": "[7]; AM 251 0.3, HM 20, ACEA 2 mg/kg, no cocaine", "result": "showed CPP effects"}, {"measurement": "effect on cocaine-induced CPP", "setting": "[7]; cocaine 10 mg/kg", "result": "did not alter CPP effects by cocaine"}, {"measurement": "effect on HM's effect in response to cocaine-induced CPP", "setting": "[7]; combined with HM 20 mg/kg", "result": "appears to counteract the cocaine-induced CPP"}, {"measurement": "behavioural effects of the compound itself", "setting": "[8]; AM 251 0.3, ACEA 2, HM 20 mg/kg, no MA (Ex. 3.14)", "result": "Neither saline-, AM 251 (0.3 mg/kg)-, ACEA (2 mg/kg)-treated nor HM (20 mg/kg)-treated animals showed any behavioural effects"}, {"measurement": "effect on MA-induced behavioural sensitization (CB1 modulation study)", "setting": "[8]; MA 1 mg/kg i.p./day x 7, challenge one week later (Ex. 3.14)", "result": "Neither ACEA nor AM 251 influenced behavioural sensitization by cocaine"}, {"measurement": "effect on HM's effect on MA-induced sensitization", "setting": "[8]; combined with HM", "result": "significantly reversed HM's effect"}]}
{"smiles": "N[C@@H](Cc1ccc(O)c(O)c1)C(=O)O", "note": "[L-dopa]", "values": [{"measurement": "effect on MA-induced reduction in locomotor activity", "setting": "[9]", "result": "significantly enhanced"}, {"measurement": "effect on MA-induced hyperthermia", "setting": "[10]", "result": "significantly attenenuated"}, {"measurement": "effect on mortality induced by LPS", "setting": "[11]", "result": "appears to attenuate mortality induced by LPS"}, {"measurement": "effect on MPTP-induced decrease in locomotor activity", "setting": "[12]", "result": "appeared to increase"}, {"measurement": "effect on LPS-induced increase in F4/80-like immunoreactivity (microglia)", "setting": "[13]", "result": "significantly attenuated"}, {"measurement": "effect on LPS-induced loss in nigral TH-IR", "setting": "[14]", "result": "significantly attenuated"}, {"measurement": "effect on LPS-induced reduction in locomotor activity", "setting": "[15]", "result": "attenuated"}]}
